Results from patent US20230263900A1, “DENDRIMER-DRUG CONJUGATE” (priority 2020, published 2023).
Read-outs that look alike come from different tables or passages of the source.

Tests used:
[1] = cited from earlier work
Solubility studies = assay type: physicochemical
Experimental: The solubility of BHALys[Lys]2[Lys]4[Lys]8[Lys]16[Lys]32[(α-NH-3′ O-Glu-Remdesivir)32(ε-NH-COPEG2000)32] RHa-3 in water was determined to be ≥200 mg/mL (or ≥43.6 mg/mL Remdesivir RHa-1) by adding water (250 μL) to 50.0 mg of BHALys [Lys]2[Lys]4[Lys]8[Lys]16[Lys]32[(α-NH-3′ O-Glu-Remdesivir)32(ε-NH-COPEG2000)32] and swirling briefly. After 2 min, the resulting solution was visually inspected for particulates and found to be a clear solution (see FIG. 2). Solutions shown are 40 mg/ml Remdesivir equivalents (equivalent to 200 mg/ml of conjugate RHa-3).
The solubility of BHALys[Lys]2[Lys]4[Lys]8[Lys]16[Lys]32[(α-NH-6N-TDA-Remdesivir)32(ε-NH-COPEG2000)32] RHa-5, in EtOH:Water (1:9 v/v) was determined to be ≥543 mg/mL (or ≥107 mg/mL Remdesivir RHa-1) by adding water EtOH:Water (1:9 v/v, 400 μL) to 380 mg of RHa-5. The mixture was swirled briefly and left to stand at rt. After 1.5 h the resulting solution (volume recorded=700 μL) was visually inspected for particulates and found to be a clear solution.
The solubility of BHALys[Lys]2[Lys]4[Lys]8[Lys]16[Lys]32[(α-NH-6N-TDA-Remdesivir)32(ε-NH-COPEG1000)32] RHa-17 in EtOH:Water (1:9 v/v) was determined to be ≥354* mg/mL (or ≥85 mg/mL Remdesivir RHa-1) by adding EtOH:Water (1:9 v/v, 958 μL) portionwise to 525 mg of RHa-17, over a period of 1.5 h with intermittent swirling. The resulting solution was visually inspected for particulates and found to be a clear solution.
(*Total volume not recorded. Assumes 1 mg construct contributes to 1 μL of final solution (i.e., total volume of final solution=1483 μL)).

Coronavirus infection = conditions: cited from earlier work
[2] = Release of Remdesivir in PBS buffer (Release Method 1); assay type: physicochemical; conditions: PBS buffer with 10% v/v DMSO, pH 7.4, 37° C.
Experimental: Release Method 1: An accurately weighed amount of the Remdesivir-dendrimer (10 mg) construct was dissolved in pH 7.4 PBS buffer:DMSO (9:1 v/v) and the volume made up to 20.0 mL in a volumetric flask to give a 0.5 mg/mL stock solution. The stock solution was aliquoted into several 2 mL screw-cap vials, the caps fitted and the vials heated at 37° C. The aliquoted solutions were analyzed at different time points by HPLC (HPLC Method 3). The concentration of Remdesivir RHa-1 was calculated by comparing the area under the peak associated with Remdesivir RHa-1 to a standard curve in MeCN:DMSO (9:1, v/v). The percentage of Remdesivir RHa-1 released is the percentage of available Remdesivir RHa-1 based on the loading of the construct as determined by ^1H NMR analysis (API Loading Method 1).
The extent to which the Remdesivir RHa-1 was released over time in PBS buffer (with 10% v/v DMSO) (pH 7.4) at 37° C. was determined for 5 constructs, RHa-17, RHa-15, RHa-11, RHa-5 and RHa-3 (Release Method 1) over 120 hours.
Trace amounts of other components were also observed (presumed to be degradation products of Remdesivir RHa-1). The area under the resolvable (separated) peaks associated with these degradants was also added to the peak area associated with released Remdesivir RHa-1.
BHALys [Lys]2[Lys]4[Lys]8[Lys]16[Lys]32[(α-NH-6N-TDA-Remdesivir)32(ε-NH-COPEG2000)32] RHa-5 contained 1.77% free Remdesivir RHa-1 at t=0 min. The value of released Remdesivir RHa-1 shown in FIG. 3 has been adjusted to take this into account.

[3] = Viscosity measurements (Viscosity Method 1); assay type: physicochemical; conditions: 50 mg/mL Remdesivir equivalents in EtOH: Water (1:9 v/v)
Experimental: Viscosities were measured on Anton Paar ViscoQC300 Viscometer using CC-12 cup.
Viscosity Method 1: A reference standard solution (Standard Type: RT500, CAS No. 63148-62-9, Paragon Scientific Ltd) was first recorded and found to be within the range of reported value (at 20° C.: found 556.6 cP, theoretical 551.0 cP; at 25° C.: found 503.3 cP, theoretical 498.6 cP). Accurately weighed quantities of respective conjugates were dissolved in EtOH:Water […] to make a 50 mg/mL Remdesivir equivalent solution (total volume 2.30-2.40 mL) and the viscosity of the solution was recorded at 20° C. and 25° C.
Viscosities of 2 formulations containing either RHa-5 or RHa-17 in EtOH: Water (1:9 v/v) were measured using Viscosity Method 1

Molecule: CCC(CC)COC(=O)[C@H](C)N[P@](=O)(OC[C@H]1O[C@@](C#N)(c2ccc3c(N)ncnn23)[C@H](O)[C@@H]1O)Oc1ccccc1 [RDV, 2-Ethylbutyl (2S)-2-{[(S)-{[(2R,3S,4R,5R)-5-(4-aminopyrrolo[2,1-f][1,2,4]triazin-7-yl)-5-cyano-3,4-dihydroxytetrahydrofuran-2-yl]methoxy}(phenoxy)phosphoryl]amino}propanoate]
- Cmax ([1]; after 200 mg dose of Remdesivir): 5440 ng/mL
- Median terminal half-life ([1]; human, in vivo): approximately 1 hours
- Plasma half-life ([1]; in vivo, iv): approximately 1 hour
- Appearance in water at 40 mg/mL (Solubility studies; water, 40 mg/mL, FIG. 2): suspension
- Clinical recovery, figure in parentheses (share of patients) (Coronavirus infection; 5-Day RDV, n = 200, Day 14): (65)
- Clinical recovery, patients (Coronavirus infection; 5-Day RDV, n = 200, Day 14): 129
- Death, figure in parentheses (share of patients) (Coronavirus infection; 5-Day RDV, n = 200, Day 14): (8)
- Death, patients (Coronavirus infection; 5-Day RDV, n = 200, Day 14): 16
- Discharge, figure in parentheses (share of patients) (Coronavirus infection; 5-Day RDV, n = 200, Day 14): (60)
- Discharge, patients (Coronavirus infection; 5-Day RDV, n = 200, Day 14): 120
- ≥ 2-point improvement in ordinal scale, figure in parentheses (share of patients) (Coronavirus infection; 5-Day RDV, n = 200, Day 14): (65)
- ≥ 2-point improvement in ordinal scale, patients (Coronavirus infection; 5-Day RDV, n = 200, Day 14): 129
- AE leading to discontinuation, figure in parentheses (share of patients) (Coronavirus infection; 5-Day RDV, n = 200): (5)
- AE leading to discontinuation, patients (Coronavirus infection; 5-Day RDV, n = 200): 9
- Any adverse event (AE), figure in parentheses (share of patients) (Coronavirus infection; 5-Day RDV, n = 200): (71)
- Any adverse event (AE), patients (Coronavirus infection; 5-Day RDV, n = 200): 141
- Grade ≥ 3 study drug-related AE, figure in parentheses (share of patients) (Coronavirus infection; 5-Day RDV, n = 200): (4)
- Grade ≥ 3 study drug-related AE, patients (Coronavirus infection; 5-Day RDV, n = 200): 8
- Study drug-related serious adverse event (SAE), figure in parentheses (share of patients) (Coronavirus infection; 5-Day RDV, n = 200): (2)
- Study drug-related serious adverse event (SAE), patients (Coronavirus infection; 5-Day RDV, n = 200): 3
- Time to clinical improvement for 50% of patients (Coronavirus infection; 5-day treatment group): 10 days
- Clinical recovery, figure in parentheses (share of patients) (Coronavirus infection; 10-Day RDV, n = 197, Day 14): (54)
- Clinical recovery, patients (Coronavirus infection; 10-Day RDV, n = 197, Day 14): 106
- Death, figure in parentheses (share of patients) (Coronavirus infection; 10-Day RDV, n = 197, Day 14): (11)
- Death, patients (Coronavirus infection; 10-Day RDV, n = 197, Day 14): 21
- Discharge, figure in parentheses (share of patients) (Coronavirus infection; 10-Day RDV, n = 197, Day 14): (52)
- Discharge, patients (Coronavirus infection; 10-Day RDV, n = 197, Day 14): 103
- ≥ 2-point improvement in ordinal scale, figure in parentheses (share of patients) (Coronavirus infection; 10-Day RDV, n = 197, Day 14): (54)
- ≥ 2-point improvement in ordinal scale, patients (Coronavirus infection; 10-Day RDV, n = 197, Day 14): 107
- AE leading to discontinuation, figure in parentheses (share of patients) (Coronavirus infection; 10-Day RDV, n = 197): (10)
- AE leading to discontinuation, patients (Coronavirus infection; 10-Day RDV, n = 197): 20
- Any adverse event (AE), figure in parentheses (share of patients) (Coronavirus infection; 10-Day RDV, n = 197): (74)
- Any adverse event (AE), patients (Coronavirus infection; 10-Day RDV, n = 197): 145
- Grade ≥ 3 study drug-related AE, figure in parentheses (share of patients) (Coronavirus infection; 10-Day RDV, n = 197): (5)
- Grade ≥ 3 study drug-related AE, patients (Coronavirus infection; 10-Day RDV, n = 197): 10
- Study drug-related serious adverse event (SAE), figure in parentheses (share of patients) (Coronavirus infection; 10-Day RDV, n = 197): (2)
- Study drug-related serious adverse event (SAE), patients (Coronavirus infection; 10-Day RDV, n = 197): 4
- Time to clinical improvement for 50% of patients (Coronavirus infection; 10-day treatment group): 11 days

Molecule: BHALys[Lys]2[Lys]4[Lys]8[Lys]16[Lys]32[(α-NH-3′O-TDA-Remdesivir)32(ε-NH-COPEG2000)32] [RHa-15]
- Approx. Time taken for 50% Remdesivir release [2]: ~9 h

Molecule: BHALys[Lys]2[Lys]4[Lys]8[Lys]16[Lys]32[(α-NH-6N-TDA-Remdesivir)32(ε-NH-COPEG2000)32] [RHa-5]
- Approx. Time taken for 50% Remdesivir release [2]: ~58 h
- Solubility in EtOH:Water (1:9 v/v) (Solubility studies; EtOH:Water (1:9 v/v), conjugate mass, rt): ≥ 543 mg/mL
- Solubility in EtOH:Water (1:9 v/v), as Remdesivir RHa-1 (Solubility studies; EtOH:Water (1:9 v/v), expressed as Remdesivir RHa-1): ≥ 107 mg/mL
- Viscosity at 20° C. [3]: 144.2 cP
- Viscosity at 25° C. [3]: 100.6 cP
